Assay: mn = molality of the nth substance listed, in mol/kg
Conditions: 85 kPa, Liquid; for viscosity: Capillary tube (Ostwald / Ubbelohde) method; for speed of sound: Frequency=3 MHz, Single path-length method; for mass density: Vibrating tube method

C[N+](C)(C)CCO.NCC(=O)[O-] [2-hydroxy-N,N,N-trimethylethanaminium glycinate] + O
Conditions | mass density [kg/m3] | speed of sound [m/s] | viscosity [mPa·s]
288.15 K, m1 = 0.0111 | 999.43 | 1468.1 | 1.251
288.15 K, m1 = 0.0214 | 999.73 | 1469.5 | 1.263
288.15 K, m1 = 0.0318 | 1000.03 | 1470.8 | 1.275
288.15 K, m1 = 0.0417 | 1000.3 | 1472.1 | 1.288
288.15 K, m1 = 0.0534 | 1000.63 | 1473.6 | 1.302
288.15 K, m1 = 0.0619 | 1000.85 | 1474.7 | 1.313
298.15 K, m1 = 0.0111 | 997.68 | 1498.2 | 1
298.15 K, m1 = 0.0214 | 997.97 | 1499.4 | 1.011
298.15 K, m1 = 0.0318 | 998.25 | 1500.6 | 1.02
298.15 K, m1 = 0.0417 | 998.57 | 1501.7 | 1.03
298.15 K, m1 = 0.0534 | 998.8 | 1503 | 1.042
298.15 K, m1 = 0.0619 | 997.38 | 1504 | 1.049
308.15 K, m1 = 0.0111 | 994.36 | 1521.1 | 0.832
308.15 K, m1 = 0.0214 | 994.66 | 1522.2 | 0.841
308.15 K, m1 = 0.0318 | 994.96 | 1523.2 | 0.851
308.15 K, m1 = 0.0417 | 995.24 | 1524.1 | 0.858
308.15 K, m1 = 0.0534 | 995.56 | 1525.2 | 0.869
308.15 K, m1 = 0.0619 | 995.79 | 1526 | 0.877
318.15 K, m1 = 0.0111 | 990.55 | 1536.9 | 0.706
318.15 K, m1 = 0.0214 | 990.85 | 1537.7 | 0.714
318.15 K, m1 = 0.0318 | 991.15 | 1538.6 | 0.722
318.15 K, m1 = 0.0417 | 991.43 | 1539.4 | 0.729
318.15 K, m1 = 0.0534 | 991.75 | 1540.5 | 0.737
318.15 K, m1 = 0.0619 | 991.99 | 1541.2 | 0.741

C[N+](C)(C)CCO.O=C([O-])[C@@H]1CCCN1 [2-hydroxy-N,N,N-trimethylethanaminium L-prolinate] + O
Conditions | mass density [kg/m3] | speed of sound [m/s] | viscosity [mPa·s]
288.15 K, m1 = 0.0136 | 999.51 | 1468.7 | 1.325
288.15 K, m1 = 0.0217 | 999.76 | 1469.9 | 1.337
288.15 K, m1 = 0.0329 | 1000.09 | 1471.5 | 1.351
288.15 K, m1 = 0.044 | 1000.42 | 1473.1 | 1.364
288.15 K, m1 = 0.0525 | 1000.67 | 1474.2 | 1.375
288.15 K, m1 = 0.0626 | 1000.96 | 1475.6 | 1.388
298.15 K, m1 = 0.0136 | 997.47 | 1499 | 1.059
298.15 K, m1 = 0.0217 | 997.71 | 1500.2 | 1.067
298.15 K, m1 = 0.0329 | 998.05 | 1501.8 | 1.077
298.15 K, m1 = 0.044 | 998.38 | 1503.4 | 1.089
298.15 K, m1 = 0.0525 | 998.63 | 1504.5 | 1.096
298.15 K, m1 = 0.0626 | 998.92 | 1505.9 | 1.104
308.15 K, m1 = 0.0136 | 994.45 | 1522.1 | 0.879
308.15 K, m1 = 0.0217 | 994.7 | 1523.3 | 0.884
308.15 K, m1 = 0.0329 | 995.04 | 1524.8 | 0.894
308.15 K, m1 = 0.044 | 995.37 | 1526.4 | 0.902
308.15 K, m1 = 0.0525 | 995.63 | 1527.5 | 0.908
308.15 K, m1 = 0.0626 | 995.92 | 1528.9 | 0.916
318.15 K, m1 = 0.0136 | 990.64 | 1538 | 0.74
318.15 K, m1 = 0.0217 | 990.9 | 1539.1 | 0.746
318.15 K, m1 = 0.0329 | 991.24 | 1540.7 | 0.753
318.15 K, m1 = 0.044 | 991.58 | 1542.2 | 0.76
318.15 K, m1 = 0.0525 | 991.84 | 1543.3 | 0.764
318.15 K, m1 = 0.0626 | 992.13 | 1544.6 | 0.772
